# From paper PMC6222496 (Molecules : A Journal of Synthetic Chemistry and Natural …, 2018)
# Where two headings read alike, the source gives them in different places.
# How the values were obtained:
# [1] = tested on: rats; settings: cited from earlier work
# [2] = tested on: rats; settings: 0.1 mg/kg; cited from earlier work
# [3] = tested on: rats; settings: cited from earlier work; for pro-depressive effects: 2-ethoxymethyl ether Sal B 0.3 mg/kg, β-tetrahydropyran Sal B 2 mg/kg
# [4] = molecular target: T1, KOPr (Homo sapiens, UniProt P41145); assay: cell-based
# T1 construct: host or cells: CHO (HitHunter cell line)
# [5] = molecular target: T2, hKOR (Homo sapiens, UniProt P41145); assay: cell-based; assay type: cell-based
# T2 construct: host or cells: U2OS (PathHunter U2OS-hKOR-βarrestin2-DX)
# [6] = tested on: Sprague-Dawley rats; assay: Cocaine-induced hyperactivity; assay type: in vivo, rat; settings: 0.3 mg/kg i.p., 45 min prior to cocaine 20 mg/kg
# [7] = tested on: Sprague-Dawley rats; assay: Expression of behavioral sensitization to cocaine; assay type: in vivo, rat; settings: 0.3 mg/kg i.p. on day 10, 45 min before cocaine 20 mg/kg
# [8] = tested on: B6.SJL mice; settings: mouse, in vivo; for EC50 (antinociception, % MPE): sc
# [9] = tested on: B6.SJL mice; assay type: in vivo, mouse
# [10] = tested on: Sprague Dawley rats; assay: Sucrose self-administration / sucrose intake; assay type: in vivo, rat; settings: 0.3 and 1.0 mg/kg i.p., 45 min pretreatment
# Procedure: For sucrose reinforcement tests, rats were maintained at approximately 85% of their initial feeding weights with free access to water throughout the experiment. Rats were trained to orally self-administer a 10% sucrose solution in eight modular test chambers (Med Associates) as previously described. Rats were trained to self-administer sucrose orally using an auto-shaping procedure (45 min daily for ten days). Once stable responding was achieved, the animals were maintained on a Fixed Ratio 1 (FR1) schedule of reinforcement where depression of the active lever (left lever) led to the delivery of sucrose solution. Following oral acquisition, the response requirements were increased to an FR5 schedule of reinforcement. Daily 1 h sessions were conducted until there was less than 20% variation in responding for three consecutive days. The animals on stable FR5 reinforcements were subjected to the sucrose reinforcement test. On the test day, rats received either vehicle (75% DMSO, 1 mL/kg, i.p.) or Mesyl Sal B (0.3, 1.0 mg/kg, i.p.) and 45 min later, sucrose reinforced lever-press responding was recorded for 60 min.
# [11] = tested on: rats; assay: Forced swim test; assay type: in vivo, rat; settings: 0.3 mg/kg i.p., 45 min before test
# Procedure: The FST apparatus consisted of a cylinder (44 cm high and 20 cm in diameter) filled to 35 cm with water maintained at 25 ± 1 °C. On the habituation day, the rats were placed in the swim chamber for 15 min and the following day were administered either with Mesyl Sal B (0.3 mg/kg, i.p.) or the vehicle (75% DMSO, 1 mL/kg, i.p.) and placed in the swim chamber45 min later. The forced swimming behavior was recorded by a video camera and the climbing, swimming, or immobility behaviors were recorded for 5 min. Data were analyzed using the SMART software (version 3.0; PanLab, Barcelona, Spain).
# [12] = molecular target: human KOPr; settings: cited from earlier work
# [13] = tested on: Sprague Dawley rats; settings: rat, in vivo
# [14] = tested on: mice
# [15] = tested on: rats; settings: rat, in vivo
# [16] = tested on: rats
# [17] = tested on: rats; remark: listed apart in the source
# [18] = tested on: B6.SJL mice; settings: cited from earlier work; for duration of action (antinociceptive effects): 1 mg/kg
# [19] = tested on: mice; set-up: method as in PMID 28263712; settings: chronic escalation drinking; cited from earlier work
# [20] = tested on: mice; set-up: method as in PMID 28263712; settings: 3 mg/kg; cited from earlier work
# [21] = tested on: drug naïve rats; settings: cited from earlier work
# [22] = tested on: Sprague-Dawley rats; settings: rat, in vivo; cited from earlier work
# [23] = tested on: Sprague-Dawley rats; settings: rat, in vivo; cited from earlier work; remark: listed apart in the source
# [24] = tested on: rats; settings: 0.16 mg/kg; cited from earlier work
# [25] = molecular target: T1, KOPr; set-up: method as in PMID 25320048; settings: human embryonic kidney cells; cited from earlier work
# [26] = tested on: human KOPr; settings: cited from earlier work; remark: listed apart in the source
# [27] = tested on: Sprague Dawley rats; settings: rat, in vivo; cited from earlier work
# [28] = tested on: mice; settings: Sal A 3–10 mg/kg, for 30 min; cited from earlier work
# [29] = tested on: rats; settings: 0.3 mg/kg; cited from earlier work
# [30] = tested on: mice; settings: mouse, in vivo; cited from earlier work
# [31] = tested on: Rhesus macaques; settings: 0.01–0.1 mg/kg i.v.; cited from earlier work
# [32] = tested on: mice; settings: 1–3.2 mg/kg; cited from earlier work
# [33] = tested on: P-glycoprotein efflux pump; settings: cited from earlier work
# [34] = tested on: rhesus monkeys; settings: rhesus monkey, in vivo; cited from earlier work
# [35] = tested on: rat KOPr; settings: cited from earlier work
# [36] = tested on: B6.SJL mice; settings: cited from earlier work
# [37] = 2 mg/kg i.p., 5 min before formaldehyde
# T2 sequence (P41145 whole entry): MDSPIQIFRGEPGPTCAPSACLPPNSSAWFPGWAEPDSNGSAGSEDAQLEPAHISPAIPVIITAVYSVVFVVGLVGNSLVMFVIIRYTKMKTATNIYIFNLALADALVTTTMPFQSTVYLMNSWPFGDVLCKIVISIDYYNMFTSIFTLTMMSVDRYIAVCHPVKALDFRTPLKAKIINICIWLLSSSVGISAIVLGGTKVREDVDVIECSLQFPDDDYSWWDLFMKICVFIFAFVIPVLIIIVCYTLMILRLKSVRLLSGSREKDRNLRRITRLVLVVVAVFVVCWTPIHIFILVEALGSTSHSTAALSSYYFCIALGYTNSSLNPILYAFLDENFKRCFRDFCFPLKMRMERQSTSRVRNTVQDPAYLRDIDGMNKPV
# T2 sequence (P32121 whole entry partner): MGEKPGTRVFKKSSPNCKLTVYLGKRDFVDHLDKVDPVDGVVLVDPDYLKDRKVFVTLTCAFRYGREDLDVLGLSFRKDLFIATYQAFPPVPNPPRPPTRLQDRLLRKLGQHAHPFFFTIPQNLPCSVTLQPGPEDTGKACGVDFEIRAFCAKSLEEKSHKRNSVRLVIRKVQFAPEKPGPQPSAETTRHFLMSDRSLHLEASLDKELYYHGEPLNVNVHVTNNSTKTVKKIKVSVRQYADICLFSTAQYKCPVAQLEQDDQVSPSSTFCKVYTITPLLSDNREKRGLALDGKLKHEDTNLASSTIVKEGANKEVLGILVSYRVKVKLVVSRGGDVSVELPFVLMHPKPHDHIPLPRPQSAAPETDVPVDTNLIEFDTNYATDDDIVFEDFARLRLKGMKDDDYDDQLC
# T1 sequence (P41145 whole entry): as the sequence (P41145 whole entry) above
molecule,measurement,setting,value
CCOCO[C@H]1C[C@@H](C(=O)OC)[C@]2(C)CC[C@H]3C(=O)O[C@H](c4ccoc4)C[C@]3(C)[C@H]2C1=O [2-ethoxymethyl ether Sal B],cocaine-prime induced cocaine seeking,[1]; rats,attenuate
same,aversive effects in the CPA paradigm,[2],did not show aversive effects
same,pro-depressive effects,[3],did not
"COC(=O)[C@@H]1C[C@H](OS(C)(=O)=O)C(=O)[C@H]2[C@@]1(C)CC[C@H]1C(=O)O[C@H](c3ccoc3)C[C@]21C [Mesyl Sal B, (2S,4aR,6aR,7R,9S,10aS,10bR)-9-(methanesulfonyloxy)-2-(3-furanyl)dodecahydro-6a, 10b-dimethyl-4,10-dioxy-2H-naptho [2,1-c]pyran-7-carboxylic acid methyl ester]",EC50,[4],0.12 nM
same,Bias Factor,[5],0.61
same,EC50,[5],236 nM
same,β-Arrestin Recruitment (PathHunter) Efficacy,[5],90.2%
same,cocaine-induced hyperactivity,[6],suppressed
same,expression of cocaine behavioral sensitization,[7],suppresses
same,Emax,[8],38%
same,"EC50 (antinociception, % MPE)",[8],3.0 mg/kg
same,pain score,"[9]; mouse, in vivo",small but significant decrease
same,phase 1 nociceptive pain (0–15 min),"[9]; mouse, in vivo",minimally effective
same,phase 2 inflammatory pain (20–60 min),"[9]; mouse, in vivo",reducing phase 2 pain at the 30 min time point
same,formaldehyde-induced paw edema,"[9]; mouse, in vivo, ip, 2 mg/kg",no significant reduction
same,sucrose intake (sucrose-reinforced responding),[10],no effect
same,swimming time,[11],significant decrease
same,time spent immobile,[11],significant increase
same,Ki,[12],2.3 ± 0.1 nM
same,recognition index (RI) value,[13],No change
same,motor impairment (latency to fall),"[14]; mouse, in vivo",no motor impairment
same,time spent in the drug-paired chamber,[15],did not significantly alter
same,taste aversion (saccharin consumption on test day),"[16]; rat, in vivo",did not induce taste aversion
same,time spent in the open arm,"[17]; rat, in vivo",no effect
same,duration of action (antinociceptive effects),"[18]; mouse, in vivo, ip",60 min
same,time at which effects are seen (onset of action),"[18]; mouse, in vivo",30 to 60 min
same,cocaine-prime induced reinstatement of drug seeking,"[1]; rat, in vivo",attenuate
same,alcohol intake,[19],attenuates
same,sucrose or saccharin intake,[20],no effect
same,"locomotor activity, spontaneous open field","[21]; rat, in vivo",no significant effect
"COC(=O)[C@@H]1C[C@H](OC(C)=O)C(=O)[C@H]2[C@@]1(C)CC[C@H]1C(=O)O[C@H](c3ccoc3)C[C@]21C [Sal A, Salvinorin A]",Bias Factor,[5],0.35
same,Emax,[8],87%
same,"EC50 (antinociception, % MPE)",[8],2.1 mg/kg
same,phase 1 nociceptive pain (0–15 min),[9]; [37],significant attenuation
same,phase 2 inflammatory pain (20–60 min),[9]; [37],significant attenuation
same,formaldehyde-induced paw edema,"[9]; 60 min after formaldehyde, Sal A 2 mg/kg i.p.",significantly reduced
same,motor impairment (latency to fall),"[14]; 2 mg/kg i.p., at 2 and 15 min",significant motor impairment
same,taste aversion (saccharin consumption on test day),[16]; 0.3 mg/kg,no effect
same,time spent in the open arm,[17]; 1 mg/kg,significantly decreased
same,locomotor activity produced by acute cocaine administration,[22],increased
same,cocaine-induced behavioral sensitization,[23],attenuated
same,duration of action (antinociceptive effects),"[18]; mice, i.p.",15 min
same,anxiety-related effects,[24],anxiolytic effects
same,cocaine-prime induced cocaine seeking,[1]; rats,attenuate
same,cocaine-prime induced reinstatement of drug seeking,[1]; rats,attenuate
same,signaling bias,[25],balanced agonist
same,signaling bias,[26]; human receptor,significantly biased towards the β-arrestin2 pathway
same,sucrose self-administration,[27],no effects
same,motor coordination in rotarod performance test,[28],induced motor incoordination
same,aversion in CTA experiments,[29],no aversion
same,depressive effects,"[3]; 0.25–2 mg/kg, rats",induces depressive effects
same,anti-depressive and anxiolytic effects,"[3]; 10–1000 μg/kg, rats",potent anti-depressive and anxiolytic effects
same,climbing behavior (motor coordination),[30],rapidly disrupt climbing behavior
same,sedation,[31],sedative effect
same,"spontaneous locomotion, open field","[21]; 0.3 mg/kg, rats",did not alter
same,place conditioning at higher doses,[32],aversion
same,P-glycoprotein efflux pump substrate,[33],substrate
CCC12CCN(CC3(O)CC3)C(Cc3ccc(O)cc31)C2(C)C (stereo not drawn) [bremazocine],cocaine self-administration,[34],decreased
same,food reinforcements,[34],decreased
CC[C@]12CCN(CC3CC3)[C@H](C(=O)c3ccc(O)cc31)[C@@H]2C [ethylketazocine],cocaine self-administration,[34],decreased
same,food reinforcements,[34],decreased
CN(C(=O)/C=C/c1ccoc1)[C@@H]1CC[C@@]2(O)[C@H]3Cc4ccc(O)c5c4[C@@]2(CCN3CC2CC2)[C@H]1O5 [nalfurafine],signaling bias,[26],extreme G-protein biased signaling
same,signaling bias,[35],bias to a much lesser extent
"Oc1ccc2c3c1O[C@H]1c4[nH]c5c(c4C[C@@]4(O)[C@@H](C2)N(CC2CC2)CC[C@]314)C[C@@]1(O)[C@H]2Cc3ccc(O)c4c3[C@@]1(CCN2CC1CC1)[C@H]5O4 [nor-BNI, Nor-binaltorphimine]",effect on U50488-induced decrease in recognition index,[13],prevented
COC(=O)[C@@H]1C[C@H](OC2CCCCO2)C(=O)[C@H]2[C@@]1(C)CC[C@H]1C(=O)O[C@H](c3ccoc3)C[C@]21C (stereo partly drawn) [β-tetrahydropyran Sal B],"potency and efficacy, cumulative dose-response",[18]; compared with Sal A,more potent and more efficacious than Sal A
same,antinociceptive effects,[36]; intraplantar 2% formaldehyde,potent antinociceptive effects
same,cocaine-prime induced cocaine seeking,[1]; rats,attenuate
same,pro-depressive effects,[3],did not
RB-64,motor coordination in rotarod performance test,[28],did not cause any motor deficits
spirobutyrolactone Sal B,formaldehyde-induced paw edema,[36],significantly reduced
same,nociceptive phase of pain,[36],did not reduce
same,"antinociceptive effects, inflammatory phase",[36]; intraplantar 2% formaldehyde,potent antinociceptive effects
